Measurements published in US20230346995A1, “USE OF ELECTRIC CURRENT OR FIELD TO MANAGE RISK OF INFECTION BY ANTIMICROBIAL-RESISTANT MICROORGANISMS” (THE TRUSTEES OF INDIANA UNIVERSITY, priority 2020, published 2023).

Key:
Type in all cases: cell-based
[1] = tested on: ketoconazole-resistant Candida albicans ATCC 64124; assay: Planktonic growth, absorbance at 600 nm; details: YPD broth; ketoconazole 100 μg/ml; versus control
Experimental: ATCC strain 64124 was maintained at 4° C. on yeast extract peptone dextrose (YPD) (BD™ Difco™) agar plates. Planktonic yeast cultures (seed inoculums) were initiated in 5 ml of YPD broth (BD™ Difco™) from a single colony of the yeast strain. Cells were incubated at 28° C., under shaker conditions (200 rpm) for 24 h, followed by initiation of master inoculums for respective experiments in 5 ml YPD broth (OD600nm ˜0.15). Yeast cells were incubated at 27° C. for all assays, except for hyphal transition experiments. For all assays, ketoconazole (Sigma Aldrich) was used at a final concentration of 100 μg/ml (dissolved in 100% methanol, stored at −20° C.).
The FDA-approved wireless electroceutical dressing (WED) Procellera (Ag—Zn dressing) (Vomaris Innovations Inc.) was the source of electric fields for treating C. albicans cells. This dressing has alternating circular regions of silver and zinc dots placed in proximity of 1 mm to each other generating electric fields in the range of 0.6-0.9 V (Banerjee et al., 2014; Banerjee et al., 2015). […] The effect of wound dressings on planktonic growth was assessed by culturing C. albicans in sterile 15 ml round bottom polypropylene tubes with 5 ml YPD broth in the presence of dressings. […] Post incubation for respective time intervals, 1 ml aliquots were taken from all groups and optical density (absorbance) was measured on a spectrophotometer at 600 nm.

[2] = tested on: ketoconazole-resistant Candida albicans ATCC 64124; assay: Cell membrane potential changes, DiBAC4(3)/PI staining, flow cytometry; details: in words; flow cytometry and microscopy
Experimental: Cell membrane potential changes were assessed by DiBAC4(3) staining. Candida albicans cells were cultured in liquid media (YPD broth), with or without dressings or ketoconazole. At respective time intervals, an aliquot of cells (1×10^8) was taken and washed with 1 ml 1X PBS followed by treatment with either 200 μl 10 μM DiBAC4(3) [Bis-(1,3-dibutylbarbituric acid) trimethine oxonol] (Anaspec) [for DiBAC4(3) single stained controls] or 10 μM propidium iodide (Sigma Aldrich) [for PI single stained controls] or a combination of both stains. Heat-killed cells (1×10^8; treated at 100° C. for 30 min) and cells treated with Amphotericin B (3 μg/ml) (Sigma
Aldrich) for 6 h were used as controls for dual stain positive and DiBAC4(3) only positive cells, respectively.
Post staining, cells were washed with 1XPBS followed by flow cytometry (with FL1-FITC for DiBAC4(3) and FL2-PE filter for PI) (10,000 events per sample) to assess dual stain positive cells in control and test samples. For flow cytometry, control and treated cells stained only with single fluorescent stains were also run separately to check individual staining patterns. Flow cytometry data were analyzed using FlowJo software and graphically represented. Scatter plots with ratio of fluorescence intensities through FL1-FITC filter and FL2-PE filter were plotted to understand cell membrane depolarization mechanism in treated cells. […]

[3] = tested on: ketoconazole-resistant Candida albicans ATCC 64124; assay: Agar lawn assay with embedded dressings; details: in words
Experimental: (§1) An agar lawn assay assessed fungicidal activity. Dressings (2′×2′) were moistened with sterile YPD broth and placed in empty Petri plates with the conducting side of the dressing facing up. One milliliter of log phase C. albicans cells (1×10^8 cells) was thoroughly mixed in sterile molten YPD agar (9 ml) and poured evenly in plates with dressings. […] Plate images were captured and the area of growth inhibition in these plates was calculated with ImageJ software. Metabolic state was assessed by FUN1 staining. […] Post treatments with electroceutical dressings, an aliquot of yeast cells (1×10^8) was taken and washed with 1 ml of 1X PBS followed by treatment with 100 μl FUN®1 (1:1000; freshly diluted in 1X PBS) for 40 min in dark condition. Cells were then washed once with 1 ml of 1X PBS followed by counter staining with 100 μl Calcofluor White (25 μg/ml) for 10 min in dark conditions. Post counter staining cells were again washed with 1 ml 1X PBS, an aliquot of cells was trapped between a cover glass and glass slide and observed at 63X. Images captured at this magnification were analyzed using ZEN blue software to calculate the ratio of red and green fluorescence intensities for two regions of interest (ROI) per image (10 ROIs per group per technical replicate). Three technical replicates were assayed for each experimental group; six biological replicates.

[4] = tested on: ketoconazole-resistant Candida albicans ATCC 64124; assay: In vitro yeast to hyphae transition assay; details: after 2 h incubation in hyphae-inducing medium
Experimental: Transition of C. albicans from yeast form to hyphal form was studied with hyphae inducing conditions (YPD broth with 10% fetal bovine serum and incubation at 37° C., static condition). Cells were cultured in 5 ml hyphae-inducing medium, with or without dressings or ketoconazole. An aliquot of cells (1 ml) was taken from all treatment groups at 6 h and 24 h. Hyphal induction and elongation was monitored microscopically (63X) and imaged at 6 h and 24 h. For hyphal length measurements, aliquots were taken after 2 h in hyphae-inducing medium and images were captured at 20X magnification. Hyphal lengths were measured from these images using Accuview software (50 measurements per experimental group, six biological replicates).

[5] = tested on: ketoconazole-resistant Candida albicans ATCC 64124; assay: Metabolic state by FUN1 staining; details: in words
Experimental: as §1

[6] = tested on: ketoconazole-resistant Candida albicans ATCC 64124; assay: Ultrastructure analysis (TEM) for cell wall thickness; details: after 24 h; compared to control cells
Experimental: Ultrastructure analysis was performed as follows. After 24 h of respective treatments in YPD broth, C. albicans cells were initially fixed overnight with 500 μl 3% glutaraldehyde/0.1 M phosphate buffer; the fixative was changed to same fixative with 0.15% tannic acid for one hour. After three rinses in buffer, the specimens were post-fixed with 1% osmium tetroxide/0.1 M phosphate buffer for one hour and then rinsed multiple times with distilled water, before en bloc staining with 1% uranyl acetate in distilled water for one hour. After multiple rinses in distilled water, standard dehydration followed through a range of 70-100% ethanol, then infiltration with acetone, to 50:50 acetone and embedding resin for 48 hours. Specimens were then embedded with 100% resin (Embed 812, Electron Microscopy Sciences, Hatfield, PA) and polymerized overnight. Sections were cut, 80-85 nm and placed on copper mesh grids and viewed on Transmission Electron Microscope (TEM) (ThermoFisher, Tecnai Spirit, Hillsoboro OR) and images taken with CCD camera (Advanced Microscopy Techniques Danvers MA). Analysis of cell wall thickness was done with TEM images using ImageJ software.

[7] = tested on: ketoconazole-resistant Candida albicans ATCC 64124; assay: Efflux pump activity by Nile Red accumulation assay; details: within 30 min to 3 h of treatment; flow cytometry
Experimental: Three technical replicates were assayed for each experimental group; six biological replicates.

[8] = tested on: ketoconazole-resistant Candida albicans ATCC 64124; assay: Semi-quantitative analysis of cell wall carbohydrates chitin, beta glucan, mannan; details: 24 h treatment
Experimental: Semi-quantitative analysis was performed for cell wall carbohydrates chitin, beta glucan, and mannan. After 24 h treatment, with dressings alone or in combination with ketoconazole, 1 ml yeast cells were washed once with 1 ml 1X PBS followed by chitin staining with Calcofluor White (Sigma Aldrich) (25 μg/ml) for 10 min; beta glucan staining with Aniline Blue (Anaspec) (0.05%) for 15 min; mannan staining with Concanavalin A-Texas Red conjugate (Life Technologies) (25 μg/ml) for 40 min. All stainings were performed under dark condition. Post-staining, cells were washed once with 1 ml 1X PBS and observed under 63X magnification. Microscopic images were used for measuring fluorescence intensities using ZEN blue software.

## CC(=O)N1CCN(c2ccc(OCC3COC(Cn4ccnc4)(c4ccc(Cl)cc4Cl)O3)cc2)CC1 (centres unmarked) [ketoconazole]
[1]
  planktonic growth measured by absorbance at 600 nm: almost equivalent
[2]
  effect on cell membrane depolarization / damage: did not have any acute or prolonged effect
[3]
  yeast growth in agar lawn assay: reduction in growth
[4]
  hyphal length measurements: pseudohyphae formed
[5]
  FUN1 staining outcome (metabolic state, plasma membrane integrity): distinct intravacuolar structures
[6]
  change in cell wall thickness: thick cell walls
[7]
  Nile red accumulation / efflux pump activity: increased efflux pump activity
[8]
  chitin content (Calcofluor white staining): increased chitin staining profile
